{"source": "ChEMBL document CHEMBL1201862", "about": "“PubChem BioAssay data set” (2004)", "key": {"[1]": {"target": "DNA dC->dU-editing enzyme APOBEC-3A (Homo sapiens, UniProt P31941)", "sequence (P31941 whole entry)": "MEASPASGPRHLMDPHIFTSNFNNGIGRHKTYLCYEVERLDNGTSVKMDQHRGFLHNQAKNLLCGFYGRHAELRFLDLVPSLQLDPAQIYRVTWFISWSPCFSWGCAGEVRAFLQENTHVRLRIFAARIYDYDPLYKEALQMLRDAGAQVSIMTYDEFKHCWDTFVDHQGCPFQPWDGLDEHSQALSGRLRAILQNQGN", "experiment": "APOBEC3A DNA deaminase inhibitors, dose response, biochemical (AID 504722)", "type": "functional"}, "[2]": {"target": "DNA dC->dU-editing enzyme APOBEC-3G (Homo sapiens, UniProt Q9HC16)", "sequence (Q9HC16 whole entry)": "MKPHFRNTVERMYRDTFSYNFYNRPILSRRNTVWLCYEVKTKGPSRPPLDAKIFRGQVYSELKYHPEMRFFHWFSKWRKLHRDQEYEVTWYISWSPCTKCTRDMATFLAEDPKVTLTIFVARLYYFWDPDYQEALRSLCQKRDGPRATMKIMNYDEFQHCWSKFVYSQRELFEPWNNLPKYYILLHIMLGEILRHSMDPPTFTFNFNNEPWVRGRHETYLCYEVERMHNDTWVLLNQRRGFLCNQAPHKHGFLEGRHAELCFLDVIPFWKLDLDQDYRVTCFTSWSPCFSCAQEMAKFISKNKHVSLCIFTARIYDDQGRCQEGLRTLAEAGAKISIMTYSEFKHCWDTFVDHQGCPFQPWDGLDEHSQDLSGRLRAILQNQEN", "experiment": "Dose Response confirmation of small molecule APOBEC3G DNA Deaminase Inhibitors via a fluorescence-based single-stranded DNA deaminase assay. [Related pubchem assays (depositor defined):AID493012, AID493028]", "type": "functional"}, "Cytochrome P450 2C19": {"target": "Cytochrome P450 2C19 (Homo sapiens, UniProt P33261)", "sequence (P33261 whole entry)": "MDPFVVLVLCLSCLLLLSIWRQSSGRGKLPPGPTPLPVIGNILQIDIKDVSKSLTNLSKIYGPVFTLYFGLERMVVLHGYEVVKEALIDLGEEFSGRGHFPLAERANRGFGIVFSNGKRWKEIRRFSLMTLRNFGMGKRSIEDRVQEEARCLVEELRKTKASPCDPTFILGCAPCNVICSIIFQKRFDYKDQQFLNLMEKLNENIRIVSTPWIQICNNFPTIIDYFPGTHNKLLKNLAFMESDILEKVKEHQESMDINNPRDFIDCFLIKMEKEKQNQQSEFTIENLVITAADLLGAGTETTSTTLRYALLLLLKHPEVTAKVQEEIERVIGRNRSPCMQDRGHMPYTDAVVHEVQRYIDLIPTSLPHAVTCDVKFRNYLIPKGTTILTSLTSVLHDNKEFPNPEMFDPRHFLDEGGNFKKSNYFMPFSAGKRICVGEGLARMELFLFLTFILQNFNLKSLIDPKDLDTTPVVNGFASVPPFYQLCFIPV", "experiment": "Cytochrome panel assay with activity outcomes. Panel member name: p450-cyp2c19 Compounds with AC50 equal or less than 10 uM are considered active", "type": "functional", "conditions": "read-out: AC50"}, "Cytochrome P450 3A4": {"target": "Cytochrome P450 3A4 (Homo sapiens, UniProt P08684)", "sequence (P08684 whole entry)": "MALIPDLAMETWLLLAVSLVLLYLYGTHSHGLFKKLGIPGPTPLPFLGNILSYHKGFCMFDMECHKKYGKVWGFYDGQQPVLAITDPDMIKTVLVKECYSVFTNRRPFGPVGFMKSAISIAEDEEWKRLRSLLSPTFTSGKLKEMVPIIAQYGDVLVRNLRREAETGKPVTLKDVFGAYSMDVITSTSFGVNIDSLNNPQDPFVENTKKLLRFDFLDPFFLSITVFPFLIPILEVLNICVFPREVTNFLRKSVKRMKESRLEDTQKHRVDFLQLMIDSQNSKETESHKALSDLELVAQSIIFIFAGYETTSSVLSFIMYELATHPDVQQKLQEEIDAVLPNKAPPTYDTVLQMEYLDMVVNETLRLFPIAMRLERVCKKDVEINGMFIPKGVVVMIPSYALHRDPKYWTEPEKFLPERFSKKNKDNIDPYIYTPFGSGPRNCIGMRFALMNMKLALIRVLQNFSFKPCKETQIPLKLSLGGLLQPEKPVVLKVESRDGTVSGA"}, "[3]": {"target": "T1, Short transient receptor potential channel 4 (Mus musculus, UniProt Q9QUQ5)", "T1 sequence (Q9QUQ5 whole entry)": "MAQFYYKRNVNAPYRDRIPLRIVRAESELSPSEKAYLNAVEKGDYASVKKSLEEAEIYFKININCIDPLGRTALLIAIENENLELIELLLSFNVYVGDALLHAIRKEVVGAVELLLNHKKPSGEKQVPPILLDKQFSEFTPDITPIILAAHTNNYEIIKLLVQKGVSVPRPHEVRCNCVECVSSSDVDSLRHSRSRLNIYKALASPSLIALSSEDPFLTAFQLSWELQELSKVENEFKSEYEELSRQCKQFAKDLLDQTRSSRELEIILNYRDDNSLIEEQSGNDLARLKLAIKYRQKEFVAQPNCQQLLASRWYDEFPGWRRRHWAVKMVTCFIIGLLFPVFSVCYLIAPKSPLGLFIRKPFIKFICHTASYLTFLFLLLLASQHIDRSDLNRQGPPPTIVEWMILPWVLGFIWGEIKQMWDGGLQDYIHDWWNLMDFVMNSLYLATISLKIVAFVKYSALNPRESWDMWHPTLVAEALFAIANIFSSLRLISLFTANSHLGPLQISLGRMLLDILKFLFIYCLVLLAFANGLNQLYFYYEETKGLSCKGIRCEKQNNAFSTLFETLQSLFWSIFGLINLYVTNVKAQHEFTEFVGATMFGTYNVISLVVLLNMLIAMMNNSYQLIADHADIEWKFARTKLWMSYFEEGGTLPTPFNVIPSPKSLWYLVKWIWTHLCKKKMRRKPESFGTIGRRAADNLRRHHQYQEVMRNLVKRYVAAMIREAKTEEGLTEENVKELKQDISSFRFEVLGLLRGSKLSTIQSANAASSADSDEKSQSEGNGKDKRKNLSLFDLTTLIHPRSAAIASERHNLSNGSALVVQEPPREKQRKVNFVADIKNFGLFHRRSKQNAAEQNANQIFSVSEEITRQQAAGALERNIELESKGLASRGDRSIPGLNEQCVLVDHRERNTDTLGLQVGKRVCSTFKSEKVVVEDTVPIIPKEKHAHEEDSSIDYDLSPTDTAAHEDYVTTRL", "experiment": "mouse TRPC4 channel inhibitors, dose response, cell-based, HEK293 TRPC4/mu-opioid, Fluo-4 calcium (AID 434942);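 further: potency of inhibitors blocking the TRPC4 calcium response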", "type": "functional"}, "Vero [4]": {"test_system": "Vero", "experiment": "cells", "type": "functional", "conditions": "Chlorocebus sabaeus"}, "Vero [5]": {"test_system": "Vero", "experiment": "cells", "type": "functional, cell-based", "conditions": "Chlorocebus sabaeus"}, "Cytochrome P450 1A2": {"target": "T2, Cytochrome P450 1A2 (Homo sapiens, UniProt P05177)", "T2 sequence (P05177 whole entry)": "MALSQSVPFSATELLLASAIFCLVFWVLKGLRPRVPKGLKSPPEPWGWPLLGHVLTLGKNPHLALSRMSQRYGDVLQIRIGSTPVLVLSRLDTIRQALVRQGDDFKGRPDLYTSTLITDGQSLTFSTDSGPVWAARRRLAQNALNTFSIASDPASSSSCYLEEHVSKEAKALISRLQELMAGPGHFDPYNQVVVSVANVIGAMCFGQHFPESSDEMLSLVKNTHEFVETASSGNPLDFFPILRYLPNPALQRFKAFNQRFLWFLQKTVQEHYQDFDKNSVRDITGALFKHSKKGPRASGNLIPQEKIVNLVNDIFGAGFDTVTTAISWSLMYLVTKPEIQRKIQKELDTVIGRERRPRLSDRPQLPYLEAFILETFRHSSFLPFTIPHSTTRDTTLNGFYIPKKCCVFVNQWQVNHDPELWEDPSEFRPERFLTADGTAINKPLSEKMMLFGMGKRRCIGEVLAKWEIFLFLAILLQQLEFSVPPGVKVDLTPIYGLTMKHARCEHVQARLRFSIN"}, "HEK293 [6]": {"test_system": "HEK293", "experiment": "NOD1 signaling inhibitors, primary screen, cell-based, luminescence, uHTS (AID 1578)", "type": "functional", "conditions": "Homo sapiens"}, "[7]": {"target": "Nucleotide-binding oligomerization domain-containing protein 2 (Homo sapiens, UniProt Q9HC29)", "sequence (Q9HC29 whole entry, the tested form may be a part)": "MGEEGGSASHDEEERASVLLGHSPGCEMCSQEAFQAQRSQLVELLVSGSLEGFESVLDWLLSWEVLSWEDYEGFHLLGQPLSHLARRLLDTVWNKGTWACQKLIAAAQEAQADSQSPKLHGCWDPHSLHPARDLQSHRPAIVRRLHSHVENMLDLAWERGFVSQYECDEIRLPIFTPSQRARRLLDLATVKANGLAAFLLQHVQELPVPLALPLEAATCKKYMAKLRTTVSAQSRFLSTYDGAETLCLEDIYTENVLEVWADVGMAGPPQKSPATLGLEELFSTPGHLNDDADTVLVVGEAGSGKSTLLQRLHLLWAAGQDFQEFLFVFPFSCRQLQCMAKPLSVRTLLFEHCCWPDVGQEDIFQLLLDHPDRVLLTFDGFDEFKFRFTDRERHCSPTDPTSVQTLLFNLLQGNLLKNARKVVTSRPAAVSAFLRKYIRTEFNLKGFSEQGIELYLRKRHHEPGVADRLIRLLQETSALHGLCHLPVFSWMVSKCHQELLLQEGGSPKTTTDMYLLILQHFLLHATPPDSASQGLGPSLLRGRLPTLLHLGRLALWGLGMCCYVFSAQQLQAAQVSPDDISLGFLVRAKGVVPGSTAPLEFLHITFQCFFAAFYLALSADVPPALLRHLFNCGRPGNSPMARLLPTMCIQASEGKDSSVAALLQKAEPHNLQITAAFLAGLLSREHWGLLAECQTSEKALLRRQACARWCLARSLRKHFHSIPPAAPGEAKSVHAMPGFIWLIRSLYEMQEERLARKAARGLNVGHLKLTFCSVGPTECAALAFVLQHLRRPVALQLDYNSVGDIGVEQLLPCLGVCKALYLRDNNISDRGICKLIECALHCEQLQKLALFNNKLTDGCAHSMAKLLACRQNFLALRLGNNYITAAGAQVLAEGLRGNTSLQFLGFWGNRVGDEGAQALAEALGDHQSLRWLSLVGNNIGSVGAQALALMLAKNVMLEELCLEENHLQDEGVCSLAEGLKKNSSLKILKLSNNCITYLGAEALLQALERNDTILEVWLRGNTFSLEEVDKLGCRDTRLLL", "experiment": "NOD2 signaling inhibitors, cell-based, luminescence, uHTS, HEK293 (AID 1566)", "type": "functional"}, "HEK293 [8]": {"test_system": "HEK293", "experiment": "cells", "type": "functional, cell-based", "conditions": "Homo sapiens"}, "HEK293 [9]": {"test_system": "HEK293", "experiment": "NOD2 signaling inhibitors in MDP-stimulated cells, cell-based, uHTS, luminescence (AID 2001)", "type": "functional", "conditions": "Homo sapiens"}, "HEK293 [10]": {"test_system": "HEK293", "experiment": "cells", "type": "functional, cell-based", "conditions": "Homo sapiens", "remark": "listed apart in the source"}}, "note": "The source made the active and inactive calls.", "data": [{"smiles": "C=C(C)Cn1c(-c2cccc([N+](=O)[O-])c2)n[nH]c1=S", "values": [{"measurement": "IC50", "setting": "[1]", "value": "> 100 µM (inactive)"}, {"measurement": "IC50", "setting": "[2]", "value": "5.5 µM (active)"}]}, {"smiles": "CCC(C)NC(=O)c1cnn2c(C)c3c(nc12)CCCC3", "note": "(configuration not stated)", "values": [{"measurement": "AC50", "setting": "Cytochrome P450 2C19", "value": "31.6 µM (inconclusive)"}, {"measurement": "AC50", "setting": "Cytochrome P450 3A4", "value": "inconclusive"}]}, {"smiles": "Cc1nn(C)c(C)c1Sc1ccc(Br)cc1", "values": [{"measurement": "EC50", "setting": "[3]", "value": "4.73 µM (active)"}]}, {"smiles": "Cc1ccc(C(C[N+](=O)[O-])c2c(-c3ccccc3O)n[nH]c2O)cc1", "note": "(configuration not stated)", "values": [{"measurement": "CC50", "setting": "Vero [4]", "value": "9.3 µM (active)"}, {"measurement": "IC50", "setting": "Vero [5]", "value": "> 25 µM (active)"}]}, {"smiles": "O=C(Nc1cccc(Cl)c1)N1CCN2C(=O)c3ccccc3C12c1ccccc1", "note": "(configuration not stated)", "values": [{"measurement": "EC50", "setting": "[3]", "value": "3.76 µM (active)"}, {"measurement": "AC50", "setting": "Cytochrome P450 1A2", "value": "3.16 µM (inconclusive)"}]}, {"smiles": "CN1CCN(c2ncc3nc(-c4ccc(Cl)cc4)c(=O)n(Cc4cccs4)c3n2)CC1", "values": [{"measurement": "AC50", "setting": "Cytochrome P450 3A4", "value": "inconclusive"}]}, {"smiles": "COc1ccc([N+](=O)[O-])cc1NCc1ccco1", "values": [{"measurement": "EC50", "setting": "[3]", "value": "2.99 µM (active)"}]}, {"smiles": "CC(=O)c1ccc(-n2c(C)c(C(C)=O)c3cc(O)ccc32)cc1", "values": [{"measurement": "EC50", "setting": "HEK293 [6]", "value": "> 20 µM (inactive)"}, {"measurement": "EC50", "setting": "[7]", "value": "> 20 µM (inactive)"}, {"measurement": "IC50", "setting": "HEK293 [8]", "value": "1.94 µM (active)"}, {"measurement": "IC50", "setting": "HEK293 [9]", "value": "2.7 µM (active)"}, {"measurement": "IC50", "setting": "HEK293 [10]", "value": "> 20 µM (inactive)"}]}, {"smiles": "c1ccn2cc(C34CC5CC(CC(C5)C3)C4)nc2c1", "values": [{"measurement": "EC50", "setting": "[3]", "value": "6.68 µM (active)"}]}]}
